Structures can show the parent of a compound that is named as a salt.
Experiments:
[1] = molecular target: T1, Polyphosphate kinase-1 (PPK-1, Rv2984) (Mycobacterium tuberculosis, UniProt P9WHV9); assay: microscale thermophoresis; format: binding
T1 sequence (P9WHV9 1-742): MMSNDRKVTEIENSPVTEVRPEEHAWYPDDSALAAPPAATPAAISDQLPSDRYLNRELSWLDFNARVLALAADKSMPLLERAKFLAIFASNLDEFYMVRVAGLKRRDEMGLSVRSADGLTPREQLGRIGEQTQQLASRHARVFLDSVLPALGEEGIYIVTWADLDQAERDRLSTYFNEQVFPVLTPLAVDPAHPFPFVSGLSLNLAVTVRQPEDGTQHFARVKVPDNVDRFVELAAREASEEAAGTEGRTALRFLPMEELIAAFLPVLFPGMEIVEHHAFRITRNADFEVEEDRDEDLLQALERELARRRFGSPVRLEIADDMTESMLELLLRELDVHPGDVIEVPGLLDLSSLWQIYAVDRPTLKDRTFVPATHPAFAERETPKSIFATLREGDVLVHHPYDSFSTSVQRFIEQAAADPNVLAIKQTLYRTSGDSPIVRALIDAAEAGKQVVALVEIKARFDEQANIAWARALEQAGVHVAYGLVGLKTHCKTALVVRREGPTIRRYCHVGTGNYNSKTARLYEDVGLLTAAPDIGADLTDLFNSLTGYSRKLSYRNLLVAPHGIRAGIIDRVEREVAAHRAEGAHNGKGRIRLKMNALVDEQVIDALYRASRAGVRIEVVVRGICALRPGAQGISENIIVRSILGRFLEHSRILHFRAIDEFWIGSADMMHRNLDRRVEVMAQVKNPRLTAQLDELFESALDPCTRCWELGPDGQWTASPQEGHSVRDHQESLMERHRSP

[2] = molecular target: T1, Polyphosphate kinase-1 (PPK-1, Rv2984); format: biochemical

Compound | Kd [1] | inhibition of PPK-1 ATP and polyP synthesis (SI Appendix Fig. S6 A-C) [2]
O=C(c1ccc(OCCN2CCCCC2)cc1)c1c(-c2ccc(O)cc2)sc2cc(O)ccc12 [Cpd-11, raloxifene hydrochloride] | 40 µM | 
O=C1OC2(c3ccccc31)c1ccc(O)c(O)c1Oc1c2ccc(O)c1O [gallein] |  | gallein inhibited both ATP and polyP synthesis activity associated with the PPK-1 homolog from M. tuberculosis

Reference: PMC10786269 (Proceedings of the National Academy of Sciences of the …, 2024)
